Measurements: ChEMBL document CHEMBL1148298, “Molecular recognition of sub-micromolar inhibitors by the epinephrine-synthesizing enzyme phenylethanolamine N-methyltransferase” (J Med Chem, 2004)

Key:
[1] = target: T1, Phenylethanolamine N-methyltransferase (Bos taurus, UniProt P10938); assay: Inhibitory potency against bovine phenylethanolamine N-Methyltransferase (PNMT)
T1 sequence (P10938 whole entry): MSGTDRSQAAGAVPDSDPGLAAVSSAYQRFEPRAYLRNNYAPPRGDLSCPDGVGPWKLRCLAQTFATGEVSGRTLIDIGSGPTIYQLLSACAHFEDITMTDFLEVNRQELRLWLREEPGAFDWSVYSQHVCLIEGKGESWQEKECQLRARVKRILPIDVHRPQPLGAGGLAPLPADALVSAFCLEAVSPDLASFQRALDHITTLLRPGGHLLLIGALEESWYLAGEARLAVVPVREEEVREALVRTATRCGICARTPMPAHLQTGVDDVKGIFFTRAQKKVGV

[2] = target: T2, Alpha-2A adrenergic receptor (Rattus norvegicus, UniProt P22909); assay: Inhibitory potency against alpha-2-adrenoceptor
T2 sequence (P22909 whole entry): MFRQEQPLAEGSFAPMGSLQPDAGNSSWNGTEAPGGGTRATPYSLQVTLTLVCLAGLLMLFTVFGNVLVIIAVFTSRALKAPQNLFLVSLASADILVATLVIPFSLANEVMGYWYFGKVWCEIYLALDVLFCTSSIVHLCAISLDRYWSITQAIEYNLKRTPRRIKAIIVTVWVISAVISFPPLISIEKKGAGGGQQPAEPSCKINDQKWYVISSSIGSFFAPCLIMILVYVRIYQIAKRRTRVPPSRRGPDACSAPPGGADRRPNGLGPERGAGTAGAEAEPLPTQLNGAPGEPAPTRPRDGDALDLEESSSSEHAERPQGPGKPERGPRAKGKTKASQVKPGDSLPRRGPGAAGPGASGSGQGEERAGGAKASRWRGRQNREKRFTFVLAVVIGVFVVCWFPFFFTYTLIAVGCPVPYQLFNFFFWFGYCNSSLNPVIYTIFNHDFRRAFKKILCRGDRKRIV

[3] = Selectivity expressed as the ratio of Ki of alpha-2-adrenoceptor to that of PNMT
[4] = substrate: NCC1CNCc2ccccc21; assay: Michaelis-Menten constant was determined against bovine phenylethanolamine N-Methyltransferase (PNMT)
[5] = substrate: NCC1CNCc2ccccc21; assay: (§1) Vmax was determined against bovine phenylethanolamine N-Methyltransferase (PNMT)
[6] = substrate: NC[C@@H](O)c1ccccc1; assay: as §1

`OCC1CNCc2ccccc21` (stereo not drawn) showed a Ki [1] of 170000 nM.

Work on `Clc1ccc2c(c1Cl)CNCCC2` yielded a Ki [2] of 4500 nM.

Work on `Clc1ccc2c(c1Cl)CNCC2` yielded a Ki [2] of […] and a Selectivity [3] of […].

Molecule `Ic1ccc2c(c1)CNCC2` has a Ki [2] of 220 nM.

B1: Phenylethanolamine N-methyltransferase (Bos taurus), P10938 (protein)
chain: MSGTDRSQAAGAVPDSDPGLAAVSSAYQRFEPRAYLRNNYAPPRGDLSCPDGVGPWKLRCLAQTFATGEVSGRTLIDIGSGPTIYQLLSACAHFEDITMTDFLEVNRQELRLWLREEPGAFDWSVYSQHVCLIEGKGESWQEKECQLRARVKRILPIDVHRPQPLGAGGLAPLPADALVSAFCLEAVSPDLASFQRALDHITTLLRPGGHLLLIGALEESWYLAGEARLAVVPVREEEVREALVRTATRCGICARTPMPAHLQTGVDDVKGIFFTRAQKKVGV
With B1 the Km [4] was 47 µM, the Vmax (nM min-1 mg-1) [5] was 3.4 and the Vmax (nM min-1 mg-1) [6] was 2.2.
